Reference: PMC6367362, “MD001, a Novel Peroxisome Proliferator-activated Receptor α/γ Agonist, Improves Glucose and Lipid Metabolism” (Scientific Reports, 2019)

Legend:
[1] = tested on: differentiated 3T3-L1 adipocytes; test: In vitro glucose consumption assay, 3T3-L1 adipocytes; type: cell-based, mouse; details: 10, 50 μM, 24 h
Experimental: (§1) Figure 3 MD001 promotes glucose consumption by induction of GLUT expression. HepG2 (A), differentiated 3T3-L1 adipocytes (B), and differentiated C2C12 myotubes (C) were treated with vehicle, MD001 (10, 50 μM), or rosiglitazone (rosi, 10 μM) for 24 h; glucose consumption was examined as described in the Methods section. Cells were harvested for total RNA isolation. Relative expression levels of GLUT2 (D) and GLUT4 (E,F) were quantitated using qRT-PCR. *, **, and ^† vs. vehicle. Data represent the mean ± SD of three independent experiments. *P < 0.05, **P < 0.01, and ^†P < 0.01.
The glucose consumption assay was performed as previously described. Briefly, cells were treated with MD001 or rosiglitazone […]. The conditioned medium from cultured cells was harvested and assayed for glucose content using a Glucose Colorimetric Assay Kit II (BioVision Inc., Milpitas, CA, USA).

[2] = tested on: HepG2 cells; test: Fatty acid oxidation assay ([3H]palmitate), HepG2; type: cell-based, human; details: 10 μM, 24 h
Experimental: Figure 4 MD001 stimulates fatty acid oxidation in vitro. HepG2 (A), differentiated 3T3-L1 adipocyte (B), and differentiated C2C12 myotubes (C) were treated with vehicle or MD001 (10 μM) for 24 h and total RNA was isolated for cDNA synthesis. Relative gene expressions were analysed by qRT-PCR. HepG2 (D), differentiated 3T3-L1 adipocytes (E), and differentiated C2C12 myotubes (F) were treated with vehicle, MD001 (10 μM), or WY14643 (WY) (10 μM) for 24 h and the fatty acid oxidation rate was analysed as described in the Methods section. To confirm whether the fatty acid oxidation rate enhanced by MD001 is mediated by PPARα, HepG2 (G), differentiated 3T3-L1 (H), and differentiated C2C12 myotubes (I) were transfected with control or PPARα siRNA (20 nM) for 48 h, followed by treatment with vehicle, MD001 (10 μM), or WY14643 (WY) (10 μM) for 24 h. […]
For the fatty acid oxidation assay, cells were incubated in α-MEM (HyClone Laboratories, Inc., Logan, UT, USA) containing 0.1 mM palmitate (9,10-[^3H]palmitate, 5 μci/mL) (PerkinElmer, Waltham, MA, USA) and 1% bovine serum albumin for 24 h. […] After incubation, the vial was removed and radioactivity (^3H2O in water) was quantified using a liquid scintillation counter (LKB Instruments, Victoria, Australia).

[3] = tested on: HepG2 cells; test: qRT-PCR gene expression in HepG2 cells; type: cell-based, human; details: 24 h
Experimental: Figure 2 MD001 induces the expression of target genes through PPARα and PPARγ activation. HEK293 cells were transiently co-transfected with human HA-PPARα (A) and HA-PPARγ (B) expression vectors along with the reporter plasmid (PPRE-pk-Luc) or control reporter plasmid (pk-Luc) with Renilla vector for 24 h. Cells were treated with MD001 (10 μM), rosiglitazone (rosi) (10 μM) or WY14643 (WY) (10 μM) for 24 h. Luciferase activity was normalised to Renilla luciferase activity as described in the Methods section. **, vs. vehicle. (C) HepG2 cells were treated with MD001 (10 μM) for 24 h, and total RNA was isolated and synthesised into cDNA. Relative expression was quantitated using qRT-PCR. **, vs. vehicle. (D,E) HepG2 cells were transfected with control siRNA, PPARα siRNA (D), or PPARγ siRNA (E) for 48 h and treated with vehicle, WY14643 (10 μM), rosiglitazone (10 μM) or MD001 (10 μM) for 24 h. Subsequently, cells were harvested for total RNA isolation. Relative expression of target genes was quantitated using qRT-PCR. ^#, vs. control siRNA; ^‡, vs. control siRNA/vehicle; ^§, vs. control siRNA/WY; * and **, vs. control siRNA/MD001. Data represent the mean ± SD of three independent experiments. *P < 0.05, **P < 0.01, ^#P < 0.01, ^‡P < 0.01, and ^§P < 0.01.
as §1
Figure 4 MD001 stimulates fatty acid oxidation in vitro. HepG2 (A), differentiated 3T3-L1 adipocyte (B), and differentiated C2C12 myotubes (C) were treated with vehicle or MD001 (10 μM) for 24 h and total RNA was isolated for cDNA synthesis. Relative gene expressions were analysed by qRT-PCR. HepG2 (D), differentiated 3T3-L1 adipocytes (E), and differentiated C2C12 myotubes (F) were treated with vehicle, MD001 (10 μM), or WY14643 (WY) (10 μM) for 24 h and the fatty acid oxidation rate was analysed as described in the Methods section. To confirm whether the fatty acid oxidation rate enhanced by MD001 is mediated by PPARα, HepG2 (G), differentiated 3T3-L1 (H), and differentiated C2C12 myotubes (I) were transfected with control or PPARα siRNA (20 nM) for 48 h, followed by treatment with vehicle, MD001 (10 μM), or WY14643 (WY) (10 μM) for 24 h. WY14643 was treated as positive control. *, **, vs. vehicle; ^† and ^‡, vs. vehicle/control siRNA; ^§, vs. WY/control siRNA; ^¶, vs. MD001/control siRNA. Data represent the mean ± SD of three independent experiments. *P < 0.05, **P < 0.01, ^†P < 0.01, ^‡P < 0.05, ^§P < 0.01, and ^¶P < 0.05.
Total RNA was isolated using an RNeasy kit (Qiagen, Germantown, MD, USA) according to the manufacturer’s instructions. Complementary DNA (cDNA) was synthesised by reverse transcription using 0.5 μg of total RNA, and quantitative RT-PCR was performed using Power SYBR Green PCR Master Mix (ABI Thermo Fisher Scientific, Foster City, CA, USA) on a StepOne 48-well real-time PCR system (ABI/Thermo Fisher Scientific). GAPDH was used as an endogenous control. Primer sequences are summarized in Supplementary Table S1.

## Cc1c(O)cc(O)c2c(-c3ccccc3)c(C(=O)/C=C/c3ccccc3)c(=O)oc12 [MD001]
[1]
  glucose consumption: significantly increased glucose consumption in a dose-dependent manner
[2]
  β-oxidation rate (fatty acid oxidation): significantly increased
[3]; HepG2, control siRNA, 10 μM
  expression of PPARα target genes ACOX, CPT, mCAD: significantly increased
  expression of PPARγ target genes GK, CD36, FABP1: significantly increased
[3]; HepG2, 10 μM
  expression levels of ACOX, CPT, MLYCD, and FATP: significantly increased
  expression of PPARα, PPARγ, and RXR genes: significantly increased
[3]; HepG2, 10, 50 μM
  expression of glucose transporter GLUT2: significantly increased
